Experimental data: US20250302862A1, “SMALL RNA DRUG FOR INHIBITING ACTIVITY OF CANCER CELLS” (Institute of Basic Medical Sciences Chinese Academy of …, priority 2022, published 2025)

System: primary lung cancer Kras^LSL-G12Dp53^fl/fl (KP) mouse model
Test: Transcriptome sequencing of lung tissue, pathway clustering of differentially expressed genes
Assay type: in vivo
Details: KP mouse lung tissue after 30 days of dosing, metacore pathway clustering, vs NC group
From the text: The mouse model of primary lung cancer was Kras^LSL-G12Dp53^fl/fl (KP). Mice were weighed and assigned to the NC group and HQi-sRNA-2 group randomly. The NC group was the negative control, in which a sphingosine(d18:1)-NC-sRNA herbal medicine delivery system was constructed from NC-sRNA. The HQi-sRNA-2 group was the experimental group, in which a sphingosine(d18:1)-HQi-sRNA-2 herbal medicine delivery system was constructed from HQi-sRNA-2. The herbal medicine delivery system was constructed by heating and mixing 10 nmol of sRNA, 100 ug of sphingosine(d18:1) and 300 ul of sterile enzyme-free water in a water bath at 90° C. for 15 minutes. Mouse lung tissue was collected after 30 days of dosing, and the total RNA was extracted and subjected to non-strand-specific transcriptome sequencing. The differentially expressed genes in the experimental group and the control group were analyzed and calculated by a bioinformatics software, and the biological pathways in which the differentially expressed genes mainly functioned were analyzed by clustering using the metacore database. The pathways of the differentially expressed genes were visualized by the visualization software package ggplot2.
(§1) The mouse model of primary lung cancer was Kras^LSL-G12Dp53^fl/fl (KP). Mice were weighed and assigned to the NC group and MDM-sRNA-39 group randomly. […] The differentially expressed genes in the experimental group and the control group were analyzed and calculated by a bioinformatics software, and the biological pathways in which the differentially expressed genes mainly functioned were analyzed by clustering using the metacore database. […]
as §1, with “(KP).” for “(KP). Mice were weighed and assigned to the NC group and MDM-sRNA-39 group randomly.”

| Substance | functions of genes down-regulated at transcriptional level |
| --- | --- |
| HQi-sRNA-2: small RNA derived from Scutellaria baicalensis, sequence AUGGUUCGAUUCCGGAGAGGG (listed as RNA, chemistry not given here) | mainly clustered in oncology, immunology and other related biological pathways |
| MDM-sRNA-39: small RNA derived from Maytenus hookeri, sequence GGGAUUGUAGUUCAAUUGGUCAGAGCACC (listed as RNA, chemistry not given here) | mainly clustered in oncology, immunology and other related biological pathways |
| MDM-sRNA-163: small RNA derived from Maytenus hookeri, sequence UGACUCUAGUCCGACUUUGUGAAAUGACU (listed as RNA, chemistry not given here) | mainly clustered in oncology, immunology, and other related biological pathways |
